Experimental data taken from ChEMBL document CHEMBL3217568, “trans-Stilbenoids: potent and selective inhibitors for human cytochrome P450 1B1” (Medchemcomm, 2011).
pIC50, pKi: −log10 of the molar value.

Experiments:
[1] = organism: Homo sapiens; assay: Selectivity ratio of IC50 for human CYP1A2 to IC50 for human CYP1B1
[2] = molecular target: T1, Cytochrome P450 1B1 (Homo sapiens, UniProt Q16678); assay: Inhibition of human CYP1B1 expressed in Escherichia coli assessed as changes in ethoxyresorufin O-deethylation activity after 3 mins by spectrofluorometer analysis
T1 sequence (Q16678 whole entry): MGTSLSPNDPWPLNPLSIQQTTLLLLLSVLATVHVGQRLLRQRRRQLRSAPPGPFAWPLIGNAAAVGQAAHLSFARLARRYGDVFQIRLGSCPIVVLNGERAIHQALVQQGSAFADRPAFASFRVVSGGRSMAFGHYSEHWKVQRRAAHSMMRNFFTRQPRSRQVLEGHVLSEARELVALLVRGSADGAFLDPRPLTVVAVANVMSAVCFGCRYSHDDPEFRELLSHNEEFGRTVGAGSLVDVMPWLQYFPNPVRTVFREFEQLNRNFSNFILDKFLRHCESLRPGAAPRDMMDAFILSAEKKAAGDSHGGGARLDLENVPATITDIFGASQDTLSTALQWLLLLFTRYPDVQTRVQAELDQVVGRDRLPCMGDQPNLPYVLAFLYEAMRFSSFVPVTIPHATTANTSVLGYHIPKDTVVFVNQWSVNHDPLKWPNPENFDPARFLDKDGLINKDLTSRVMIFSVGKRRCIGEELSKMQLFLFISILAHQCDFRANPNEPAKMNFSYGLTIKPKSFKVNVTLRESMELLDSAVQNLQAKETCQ

[3] = organism: Homo sapiens; assay: Selectivity ratio of IC50 for human CYP1A1 to IC50 for human CYP1B1
[4] = molecular target: T2, Cytochrome P450 1A1 (Homo sapiens, UniProt P04798); assay: Inhibition of human CYP1A1 expressed in Escherichia coli assessed as changes in ethoxyresorufin O-deethylation activity after 3 mins by spectrofluorometer analysis; format: ADME
T2 sequence (P04798 whole entry): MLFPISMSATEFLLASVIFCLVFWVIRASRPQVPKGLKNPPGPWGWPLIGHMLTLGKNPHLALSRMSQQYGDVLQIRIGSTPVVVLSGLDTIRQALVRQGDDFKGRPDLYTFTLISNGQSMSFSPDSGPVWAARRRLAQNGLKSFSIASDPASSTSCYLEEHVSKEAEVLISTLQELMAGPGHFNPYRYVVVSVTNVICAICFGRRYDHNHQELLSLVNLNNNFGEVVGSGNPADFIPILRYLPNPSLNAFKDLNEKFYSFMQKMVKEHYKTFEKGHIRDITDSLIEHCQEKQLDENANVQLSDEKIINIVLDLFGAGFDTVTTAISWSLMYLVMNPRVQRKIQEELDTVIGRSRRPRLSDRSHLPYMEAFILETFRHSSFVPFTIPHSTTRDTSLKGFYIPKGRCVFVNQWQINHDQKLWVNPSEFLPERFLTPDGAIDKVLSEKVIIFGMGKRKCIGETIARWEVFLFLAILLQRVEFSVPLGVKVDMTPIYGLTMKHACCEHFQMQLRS

[5] = molecular target: T3, Cytochrome P450 1A2 (Homo sapiens, UniProt P05177); assay: Inhibition of human CYP1A2 expressed in Escherichia coli assessed as changes in ethoxyresorufin O-deethylation activity after 3 mins by spectrofluorometer analysis; format: ADME
T3 sequence (P05177 whole entry): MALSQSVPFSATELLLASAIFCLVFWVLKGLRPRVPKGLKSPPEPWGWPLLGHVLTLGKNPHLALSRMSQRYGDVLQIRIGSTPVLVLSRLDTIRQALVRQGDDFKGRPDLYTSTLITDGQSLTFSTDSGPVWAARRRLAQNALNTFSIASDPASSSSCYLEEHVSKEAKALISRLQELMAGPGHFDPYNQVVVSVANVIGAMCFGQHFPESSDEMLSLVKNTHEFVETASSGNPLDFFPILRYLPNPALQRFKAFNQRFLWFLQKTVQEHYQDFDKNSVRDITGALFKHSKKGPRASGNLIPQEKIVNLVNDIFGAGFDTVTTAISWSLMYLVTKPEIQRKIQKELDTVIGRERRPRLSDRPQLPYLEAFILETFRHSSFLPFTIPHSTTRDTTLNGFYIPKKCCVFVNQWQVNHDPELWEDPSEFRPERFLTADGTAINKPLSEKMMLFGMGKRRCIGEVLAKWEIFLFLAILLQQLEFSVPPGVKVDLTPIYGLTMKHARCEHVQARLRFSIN

[6] = molecular target: T1, Cytochrome P450 1B1; assay: Inhibition of CYP1B1 (unknown origin)
[7] = molecular target: T2, Cytochrome P450 1A1; assay: Inhibition of CYP1A1 (unknown origin); format: ADME

pIC50 [2] | pIC50 [4] | pIC50 [5] | Structure (SMILES) | Ratio IC50 [1] | Ratio IC50 [3] | pKi [6] | pKi [7]
8.48 | 6.38 | 5.76 | COc1ccc(/C=C/c2c(OC)ccc(OC)c2OC)c(OC)c1 | 526 | 127 | – | –
8.45 | 6.46 | 6.52 | COc1ccc(OC)c(/C=C/c2ccc(OC)cc2OC)c1 | 86 | 100 | – | –
7.24 | 6.18 | 5.97 | COc1ccc(/C=C/c2ccc(OC)cc2OC)cc1 | 18 | 12 | – | –
8.06 | 6.65 | 6.69 | COc1ccc(/C=C/c2ccc(OC)cc2OC)c(OC)c1 | 23 | 25 | – | –
7.81 | 6.47 | 6.10 | COc1ccc(/C=C/c2ccccc2OC)c(OC)c1 | 51 | 22 | – | –
7.38 | 6.72 | 6.47 | COc1ccc(/C=C/c2ccc(OC)c(OC)c2)c(OC)c1 | 8.1 | 4.6 | – | –
7.22 | 6.72 | 6.61 | COc1ccc(/C=C/c2cccc(OC)c2OC)c(OC)c1 | 4.1 | 3.2 | – | –
8.75 | 6.46 | 6.77 | COc1ccc(/C=C/c2c(OC)cccc2OC)c(OC)c1 | 95 | 194 | – | –
7.82 | 7.01 | 6.04 | COc1cccc(/C=C/c2ccc(OC)cc2OC)c1 | 59 | 6.5 | – | –
8.26 | 7.11 | 6.63 | COc1ccc(/C=C/c2cc(OC)c(OC)cc2OC)c(OC)c1 | 43 | 14 | – | –
8.31 | 6.83 | 6.73 | COc1ccc(/C=C/c2c(OC)cc(OC)cc2OC)c(OC)c1 | 38 | 30 | – | –
7.15 | 6.52 | 5.33 | COc1ccc(/C=C/c2cc(OC)c(OC)c(OC)c2)c(OC)c1 | 66 | 4.2 | – | –
– | – | – | COc1cc(/C=C/c2ccc(O)cc2)cc(OC)c1 [PTEROSTILBENE] | – | – | 6.05 | 6.24
7.60 | 6.31 | 6.49 | COc1ccc(/C=C/c2ccccc2)c(OC)c1 | 13 | 20 | – | –
– | – | – | COc1cc(O)cc(/C=C/c2ccc(O)cc2)c1 | – | – | 6.05 | 6.92
– | – | – | COc1ccc(/C=C/c2cc(O)cc(O)c2)cc1 [RESVERATROL 4'-METHYL ETHER] | – | – | 5.68 | 6.80
